Several values for one entry are separate records, joined by “and”; a condition that tells them apart may be missing. Equal entries are not always repeated. Where two headings read alike, the source gives them in different places. Peptide text beside a SMILES is read from it.
What was measured:
[1] = target: T1, rabbit B2R-green fluorescent protein (B2R-GFP) (Oryctolagus cuniculus, UniProt Q28642); experiment: [3H]BK binding competition to B2R-GFP stably expressed in intact HEK 293 cells; conditions: for [3H]BK binding to B2R-GFP log(IC50) ± SE: log of IC50, 3 nM [3H]BK, 0 °C, with peptidase inhibitors incl. captopril, HEK 293 cells; for IC50 for B2R-GFP relative to unlabeled BK (fold greater IC50 / lower affinity): [3H]BK binding competition, vs BK
T1 construct: expressed in transfected cells
T1 sequence (Q28642 1-367): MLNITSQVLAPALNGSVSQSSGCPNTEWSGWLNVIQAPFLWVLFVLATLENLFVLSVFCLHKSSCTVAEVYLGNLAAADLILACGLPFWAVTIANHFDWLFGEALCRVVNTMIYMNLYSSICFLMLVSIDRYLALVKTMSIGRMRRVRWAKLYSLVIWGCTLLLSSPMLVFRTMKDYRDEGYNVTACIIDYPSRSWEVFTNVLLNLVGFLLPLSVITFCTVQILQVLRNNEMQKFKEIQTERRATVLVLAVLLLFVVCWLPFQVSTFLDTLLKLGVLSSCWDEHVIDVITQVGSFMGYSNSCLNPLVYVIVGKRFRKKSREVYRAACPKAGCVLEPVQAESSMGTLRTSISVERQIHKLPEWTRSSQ
Protocol: (§1) Affinity for the B2R was evaluated using a radioligand binding competition assay performed at 0 °C in the presence of peptidase inhibitors that included captopril ([Houle et al., 2000]). […] Other HEK 293a cells that transiently expressed human recombinant ACE were used to perform a [^3H]enalaprilat binding assay as described ([Koumbadinga et al., 2010]; the peACE vector was a gift from Prof. P. Corvol, Paris, France).
(§2) Results are presented as mean ± SEM. Radioligand binding data were fitted by non-linear regression to a one-site competition equation using a least-square method (Prism 4.0, GraphPad Software Inc., San Diego, CA, USA) and IC50 values calculated from this procedure. The same computer program was used to draw concentration-effect curves (least square fitting of sigmoidal dose-response equation with variable slope) and to derive contractile EC50 values. The qualitative effect of treatments on the distribution of the B2R-GFP fluorescent protein (either located at the plasma membrane or submitted to internalization) was evaluated for each HEK 293 cell in large microphotographic records and proportion of affected cells were compared using the χ^2 statistics to determine drug effect on the subcellular receptor distribution.

human recombinant ACE = human recombinant ACE (Homo sapiens, UniProt P12821); experiment: [3H]enalaprilat binding competition to recombinant ACE transiently expressed in HEK 293a cells; set-up: expressed in transfected cells; host or cells: HEK 293a cells, transient expression (peACE vector, gift from Prof. P. Corvol); conditions: for fold lesser affinity vs. BK for ACE: [3H]enalaprilat binding competition; for [3H]enalaprilat binding to ACE log(IC50) ± SE: log of IC50, 2 nM [3H]enalaprilat, HEK 293a cells
Protocol: as §1, §2

[2] = target: T2, BK B2R (human umbilical vein rings) (Homo sapiens, UniProt P30411); experiment: Human isolated umbilical vein contractility assay; type: cell-based; conditions: for fold less potent than BK as contractile agent: control conditions, vs BK; for +Peptidase inhibitor log(EC50) ± SE / Control (DMSO vehicle) log(EC50) ± SE: log of contractile EC50; for Control (DMSO vehicle) log(EC50) ± SE: no peptidase inhibitor, paired tissues; for decrease of apparent contractile potency by ACE blockade: enalaprilat 1 μM vs paired control tissues; for reduction of contractile potency by Plummer's inhibitor: Plummer's inhibitor vs control tissues
T2 construct: from tissue; host or cells: human umbilical vein rings
T2 sequence (P30411 1-391): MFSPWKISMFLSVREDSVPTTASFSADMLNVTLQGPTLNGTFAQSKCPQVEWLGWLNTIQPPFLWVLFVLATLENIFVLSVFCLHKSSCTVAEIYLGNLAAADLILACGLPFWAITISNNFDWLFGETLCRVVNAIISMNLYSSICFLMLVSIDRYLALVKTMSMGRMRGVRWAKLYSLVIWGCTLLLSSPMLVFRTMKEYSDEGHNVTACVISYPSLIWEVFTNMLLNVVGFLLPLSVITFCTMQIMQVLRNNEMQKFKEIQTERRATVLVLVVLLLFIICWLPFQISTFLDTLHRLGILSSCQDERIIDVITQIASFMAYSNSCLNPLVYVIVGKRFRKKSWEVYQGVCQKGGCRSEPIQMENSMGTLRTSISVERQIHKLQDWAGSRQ
Excerpt: The institutional research ethics board (CHU de Québec) approved the anonymous use of human umbilical cord segments obtained after elective cesarean section deliveries. Informed consent was obtained from mothers. […] Tissues were used only once and discarded; controls curves were obtained from other vascular rings from the same vein.
as §2

human B1R (B1R-FLAG) = target: T3, human B1R (B1R-FLAG) (Homo sapiens, UniProt P46663); experiment: [3H]Lys-des-Arg9-BK binding competition to B1R-FLAG transiently expressed in HEK 293a cells; conditions: for [3H]Lys-des-Arg9-BK binding to B1R-FLAG log(IC50) ± SE: log of IC50, 1 nM [3H]Lys-des-Arg9-BK, HEK 293a cells
T3 construct: FLAG; expressed in transfected cells
T3 sequence (P46663 1-353): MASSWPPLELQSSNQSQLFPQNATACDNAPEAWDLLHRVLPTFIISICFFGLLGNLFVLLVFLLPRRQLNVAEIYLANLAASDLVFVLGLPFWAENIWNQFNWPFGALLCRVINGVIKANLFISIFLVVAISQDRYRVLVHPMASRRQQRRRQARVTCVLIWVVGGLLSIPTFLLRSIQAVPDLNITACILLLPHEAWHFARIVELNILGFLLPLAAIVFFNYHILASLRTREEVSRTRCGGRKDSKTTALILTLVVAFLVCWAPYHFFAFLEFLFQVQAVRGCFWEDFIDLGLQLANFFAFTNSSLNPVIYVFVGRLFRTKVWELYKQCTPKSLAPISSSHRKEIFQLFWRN

[3] = target: human B1R (B1R-FLAG vector) (human) (UniProt P46663); experiment: radioligand binding; competition of 1 nM [^3H]Lys-des-Arg^9-BK binding to HEK 293a cells transiently expressing human B1R (B1R-FLAG vector); one-site competition fit
[4] = target: rabbit B2R-green fluorescent protein (rabbit) (UniProt Q28642); experiment: radioligand binding; competition of 3 nM [^3H]BK binding to adherent intact HEK 293 cells stably expressing rabbit B2R-GFP by unlabeled peptides; 0 °C; peptidase inhibitors that included captopril; one-site competition fit
[5] = target: endogenous B2 receptor of the human umbilical vein (human (endogenous in umbilical vein)) (UniProt P30411)
[6] = enalaprilat 1 μM, 30 min before agonist

Chain of human recombinant ACE (P12821 30-1306): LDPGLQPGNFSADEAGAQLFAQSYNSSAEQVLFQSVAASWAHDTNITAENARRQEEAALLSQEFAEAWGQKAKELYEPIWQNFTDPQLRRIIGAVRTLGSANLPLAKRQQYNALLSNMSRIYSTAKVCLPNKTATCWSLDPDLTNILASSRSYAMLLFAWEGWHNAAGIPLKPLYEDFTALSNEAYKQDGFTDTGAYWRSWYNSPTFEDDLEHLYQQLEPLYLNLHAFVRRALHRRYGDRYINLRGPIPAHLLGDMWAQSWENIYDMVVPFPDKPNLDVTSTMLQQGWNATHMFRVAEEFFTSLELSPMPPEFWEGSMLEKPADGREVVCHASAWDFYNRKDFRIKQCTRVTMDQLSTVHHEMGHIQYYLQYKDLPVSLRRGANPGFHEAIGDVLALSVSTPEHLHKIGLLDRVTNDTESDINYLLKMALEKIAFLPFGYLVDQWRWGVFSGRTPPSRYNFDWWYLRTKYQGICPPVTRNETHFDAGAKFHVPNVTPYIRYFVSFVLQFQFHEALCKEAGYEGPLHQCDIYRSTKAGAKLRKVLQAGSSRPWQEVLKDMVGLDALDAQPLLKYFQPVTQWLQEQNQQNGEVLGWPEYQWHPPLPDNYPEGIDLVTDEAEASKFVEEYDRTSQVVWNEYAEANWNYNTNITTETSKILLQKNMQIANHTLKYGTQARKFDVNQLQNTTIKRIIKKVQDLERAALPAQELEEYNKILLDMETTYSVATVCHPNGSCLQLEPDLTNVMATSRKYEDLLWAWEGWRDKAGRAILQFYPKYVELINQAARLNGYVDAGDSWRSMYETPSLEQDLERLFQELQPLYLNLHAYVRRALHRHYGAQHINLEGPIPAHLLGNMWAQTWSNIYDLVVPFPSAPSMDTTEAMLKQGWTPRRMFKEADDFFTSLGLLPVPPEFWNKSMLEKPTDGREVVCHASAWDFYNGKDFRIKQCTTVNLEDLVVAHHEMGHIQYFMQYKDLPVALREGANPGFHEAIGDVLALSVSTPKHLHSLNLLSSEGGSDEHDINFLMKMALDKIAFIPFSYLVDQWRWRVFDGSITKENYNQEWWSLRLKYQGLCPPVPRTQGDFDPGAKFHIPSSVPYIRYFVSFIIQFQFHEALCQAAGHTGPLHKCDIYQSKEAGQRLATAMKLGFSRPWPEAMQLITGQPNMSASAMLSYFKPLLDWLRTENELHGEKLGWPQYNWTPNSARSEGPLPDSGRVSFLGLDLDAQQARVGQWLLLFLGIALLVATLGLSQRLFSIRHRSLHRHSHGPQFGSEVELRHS

Row | Compound | [3H]BK binding to B2R-GFP log(IC50) ± SE [1] | fold lesser affinity vs. BK for ACE (human recombinant ACE) [fold] | [3H]enalaprilat binding to ACE log(IC50) ± SE (human recombinant ACE) | fold less potent than BK as contractile agent [2] [fold] | +Peptidase inhibitor log(EC50) ± SE [2, 6] | Control (DMSO vehicle) log(EC50) ± SE [2] | [3H]Lys-des-Arg9-BK binding to B1R-FLAG log(IC50) ± SE (human B1R (B1R-FLAG)) | IC50 for B2R-GFP relative to unlabeled BK (fold greater IC50 / lower affinity) [1] [fold] | decrease of apparent contractile potency by ACE blockade [2] | further results
1 | C[C@H](NC(=O)[C@H](CCCNC(=N)N)NC(=O)[C@H](Cc1ccccc1)NC(=O)[C@@H]1CCCN1C(=O)[C@H](CO)NC(=O)[C@H](Cc1ccccc1)NC(=O)CNC(=O)[C@@H]1CCCN1C(=O)[C@@H]1CCCN1C(=O)[C@@H](N)CCCNC(=N)N)C(=O)N1CCC[C@H]1C(=O)O [BK-Ala-Pro] (H-RPPGFSPFRAP-OH; N-terminus and C-terminus assumed) | -5.11 ± 0.16 | 2.23 | -5.46 ± 0.11 | 14.1 | -5.55 ± 0.06 | -6.59 ± 0.07 | >-5 | – | – | –
2 | N=C(N)NCCC[C@H](NC(=O)[C@H](Cc1ccccc1)NC(=O)[C@@H]1CCCN1C(=O)[C@H](CO)NC(=O)[C@H](Cc1ccccc1)NC(=O)CNC(=O)[C@@H]1CCCN1C(=O)[C@@H]1CCCN1C(=O)[C@H](CCCNC(=N)N)NC(=O)[C@@H]1CCCN1C(=O)[C@@H](N)CCCNC(=N)N)C(=O)O [Arg-Pro-BK] (H-RPRPPGFSPFR-OH; N-terminus and C-terminus assumed) | -7.61 ± 0.09 | – | – | – | – | -7.39 ± 0.06 | – | 1.6 | – | effect of DPP-IV inhibitor NVP-DPP728 on apparent contractile potency (in words) ([2]; NVP-DPP728 1 μM): did not show a loss of apparent potency; effect of aminopeptidase inhibitor amastatin on contractile effect (in words) ([2]; amastatin 3 μM): failed to modify; +Peptidase inhibitor log(EC50) ± SE ([2]; NVP-DPP728 1 μM): -7.29 ± 0.03; +Peptidase inhibitor log(EC50) ± SE ([2]; amastatin 3 μM): -7.35 ± 0.07
3 | BK-Arg (peptide) | – | – | – | – | – | – | – | – | – | log(IC50) [3]: -5.12 log M; log(IC50) [4]: -6.34 log M
4 | Arg-Pro-BK (peptide) | – | – | – | – | – | – | – | – | – | log(IC50) [4]: -7.61 log M; log(EC50) of contraction of the human isolated umbilical vein, control (DMSO vehicle), Figure 5B [5]: -7.39 log M; log(EC50) of contraction of the human isolated umbilical vein, with NVP-DPP728 1 μM, Figure 5B [5]: -7.29 log M; log(EC50) of contraction of the human isolated umbilical vein, with amastatin 3 μM, Figure 5B [5]: -7.35 log M
5 | N=C(N)NCCC[C@H](NC(=O)[C@H](Cc1ccccc1)NC(=O)[C@@H]1CCCN1C(=O)[C@H](CO)NC(=O)[C@H](Cc1ccccc1)NC(=O)CNC(=O)[C@@H]1CCCN1C(=O)[C@@H]1CCCN1C(=O)[C@@H](N)CCCNC(=N)N)C(=O)N[C@@H](CO)C(=O)N[C@@H](Cc1ccc(O)cc1)C(=O)O [BK-Ser-Tyr] (H-RPPGFSPFRSY-OH; N-terminus and C-terminus assumed) | -5.79 ± 0.13 | 3.94 | -5.21 ± 0.15 | 6.9 | -6.32 ± 0.06 | -6.90 ± 0.09 | >-5 | 102 | 3.9 fold | –
6 | NC(N)=NCCC[C@H](NC(=O)[C@H](Cc1ccccc1)NC(=O)[C@@H]1CCCN1C(=O)[C@H](CO)NC(=O)[C@H](Cc1ccccc1)NC(=O)CNC(=O)[C@@H]1CCCN1C(=O)[C@@H]1CCCN1C(=O)[C@@H](N)CCCN=C(N)N)C(=O)O [BK, Bradykinin, reference compound] (H-RPPGFSPFR-OH) | – | – | – | – | – | – | – | – | – | IC50 [1]: 15.8 nM; IC50 (human recombinant ACE): 1550 nM; IC50 (human B1R (B1R-FLAG)): > 10000 nM
7 | N=C(N)NCCC[C@H](NC(=O)[C@H](Cc1ccccc1)NC(=O)[C@@H]1CCCN1C(=O)[C@H](CO)NC(=O)[C@H](Cc1ccccc1)NC(=O)CNC(=O)[C@@H]1CCCN1C(=O)[C@@H]1CCCN1C(=O)[C@@H](N)CCCNC(=N)N)C(=O)O [BK, Bradykinin, reference compound] (H-RPPGFSPFR-OH) | – | – | – | – | – | – | – | – | not changed | reduction of contractile potency by Plummer's inhibitor [2]: did not affect
8 | N=C(N)NCCC[C@H](NC(=O)[C@H](CCCNC(=N)N)NC(=O)[C@H](Cc1ccccc1)NC(=O)[C@@H]1CCCN1C(=O)[C@H](CO)NC(=O)[C@H](Cc1ccccc1)NC(=O)CNC(=O)[C@@H]1CCCN1C(=O)[C@@H]1CCCN1C(=O)[C@@H](N)CCCNC(=N)N)C(=O)O [BK-Arg] (H-RPPGFSPFRR-OH; N-terminus and C-terminus assumed) | -6.34 ± 0.11 | – | – | – | – | -6.67 ± 0.08 | -5.12 ± 0.10 | 29 | – | reduction of contractile potency by Plummer's inhibitor [2]: 15 fold; +Peptidase inhibitor log(EC50) ± SE ([2]; Plummer's inhibitor 1 μM): -5.49 ± 0.07; IC50 (human B1R (B1R-FLAG); competition of [3H]Lys-des-Arg9-BK binding, read-out: IC50 for recombinant human B1R): 7600 nM
9 | CC(C)C[C@H](NC(=O)[C@H](Cc1c[nH]cn1)NC(=O)[C@H](CCCNC(=N)N)NC(=O)[C@H](Cc1ccccc1)NC(=O)[C@@H]1CCCN1C(=O)[C@H](CO)NC(=O)[C@H](Cc1ccccc1)NC(=O)CNC(=O)[C@@H]1CCCN1C(=O)[C@@H]1CCCN1C(=O)[C@@H](N)CCCNC(=N)N)C(=O)O [BK-His-Leu] (H-RPPGFSPFRHL-OH; N-terminus and C-terminus assumed) | -5.24 ± 0.20 | 3.33 | -5.28 ± 0.22 | 13.5 | -5.34 ± 0.06 | -6.61 ± 0.11 | >-5 | 363 | 18 fold and 18.3 fold | –

From publication PMC3945637 (Frontiers in Pharmacology, 2014)
